Experimental data as given in patent US20240383852A1, “ANTI-VIRAL COMPOUNDS” (INFEX Therapeutics Limited, priority 2021, published 2024).

Legend:
[1] = test system: human Hep G2 cells (ATCC HB-8065); experiment: Cytotoxicity in Hep G2 cells (CellTiter-Glo); format: cell-based; conditions: Hep G2 cells, 100 μM test article, 24-hour exposure
SARS-CoV-2 PLpro = biological target: T1, SARS-CoV-2 PLpro (Severe acute respiratory syndrome coronavirus 2, UniProt P0DTD1); experiment: biochemical; conditions: 60 nM papain-like protease, 50 μM Z-RLRGG-AMC, pH 7.5, 37° C.; read-out: SARS-CoV-2 PLpro IC50
T1 construct: containing 60 nM papain-like protease

## Cc1ccc(N2CCCN(S(N)(=O)=O)CC2)cc1C(=O)N[C@H](C)c1cccc2ccccc12 [Example 178, 2-methyl-N-[(1R)-1-(1-naphthyl)ethyl]-5-(4-sulfamoyl-1,4-diazepan-1-yl)benzamide]
[1]
  % Cell Viability: 77.2%
SARS-CoV-2 PLpro
  IC50: < 20000 nM

## COc1ccc([C@@H](C)NC(=O)c2cc(N3CCN(C)CC3)ccc2C)cc1Br [Example 180, N-[(1R)-1-(3-Bromo-4-methoxy-phenyl)ethyl]-2-methyl-5-(4-methylpiperazin-1-yl)benzamide]
[1]
  % Cell Viability: 93.4%
SARS-CoV-2 PLpro
  IC50: < 2000 nM

## COc1ccc([C@@H](C)NC(=O)c2cc(N3C[C@H]4C[C@@H]3CN4C)ccc2C)cc1Br [Example 181, N-[(1R)-1-(3-Bromo-4-methoxy-phenyl)ethyl]-2-methyl-5-[(1R,4R)-5-methyl-2,5-diazabicyclo[2.2.1]heptan-2-yl]benzamide]
[1]
  % Cell Viability: 18.9%
SARS-CoV-2 PLpro
  IC50: < 2000 nM

## Cc1ccc(N2CCN(C)CC2)cc1C(=O)N[C@H](C)c1ccc2c(c1)OCCO2 [Example 182, N-[(1R)-1-(2,3-Dihydro-1,4-benzodioxin-6-yl)ethyl]-2-methyl-5-(4-methylpiperazin-1-yl)benzamide]
[1]
  % Cell Viability: 104.8%
SARS-CoV-2 PLpro
  IC50: < 5000 nM

## COc1cc([C@@H](C)NC(=O)c2cc(N3CCN(C)CC3)ccc2C)ccc1OCc1ccccc1 [Example 184, N-[(1R)-1-(4-benzyloxy-3-methoxy-phenyl)ethyl]-2-methyl-5-(4-methylpiperazin-1-yl)benzamide]
[1]
  % Cell Viability: 51.3%
SARS-CoV-2 PLpro
  IC50: < 2000 nM

## COc1ccc([C@@H](C)NC(=O)c2cc(N3CCN(C)CC3)ccc2C)cc1F [Example 185, N-[(1R)-1-(3-Fluoro-4-methoxy-phenyl)ethyl]-2-methyl-5-(4-methylpiperazin-1-yl)benzamide]
[1]
  % Cell Viability: 5.6%
SARS-CoV-2 PLpro
  IC50: < 10000 nM

## COc1cc(Br)cc([C@@H](C)NC(=O)c2cc(N3CCN(C)CC3)ccc2C)c1 [Example 186, N-[(1R)-1-(3-Bromo-5-methoxy-phenyl)ethyl]-2-methyl-5-(4-methylpiperazin-1-yl)benzamide]
[1]
  % Cell Viability: 1.0%
SARS-CoV-2 PLpro
  IC50: < 2000 nM

## Cc1ccc(N2CCN(C)CC2)cc1C(=O)N[C@H](C)c1ccc(F)c(Br)c1 [Example 187, N-[(1R)-1-(3-Bromo-4-fluoro-phenyl)ethyl]-2-methyl-5-(4-methylpiperazin-1-yl)benzamide]
[1]
  % Cell Viability: 44.0%
SARS-CoV-2 PLpro
  IC50: < 2000 nM

## COc1ccc([C@@H](C)NC(=O)c2cc(N3CCN(C)CC3)ccc2C)cc1Cl [Example 188, N-[(1R)-1-(3-Chloro-4-methoxy-phenyl)ethyl]-2-methyl-5-(4-methylpiperazin-1-yl)benzamide]
[1]
  % Cell Viability: 84.9%
SARS-CoV-2 PLpro
  IC50: < 2000 nM

## Cc1ccc(N2CCN(C)CC2)cc1C(=O)N[C@H](C)c1ccc(OC(F)(F)F)c(Br)c1 [Example 190, N-[(1R)-1-[3-Bromo-4-(trifluoromethoxy)phenyl]ethyl]-2-methyl-5-(4-methylpiperazin-1-yl)benzamide]
[1]
  % Cell Viability: 0.9%
SARS-CoV-2 PLpro
  IC50: < 5000 nM

## COc1ccc([C@@H](C)NC(=O)c2cc(N3CCN(C)CC3)ccc2C)c2ccccc12 [Example 192, N-[(1R)-1-(4-Methoxy-1-naphthyl)ethyl]-2-methyl-5-(4-methylpiperazin-1-yl)benzamide]
[1]
  % Cell Viability: 6.3%
SARS-CoV-2 PLpro
  IC50: < 2000 nM

## COc1ccc(Br)cc1[C@@H](C)NC(=O)c1cc(N2CCN(C)CC2)ccc1C [Example 195, N-[(1R)-1-(5-Bromo-2-methoxy-phenyl)ethyl]-2-methyl-5-(4-methylpiperazin-1-yl)benzamide]
[1]
  % Cell Viability: 41.5%
SARS-CoV-2 PLpro
  IC50: < 2000 nM

## Cc1ccc([C@@H](C)NC(=O)c2cc(N3CCN(C)CC3)ccc2C)cc1Br [Example 196, N-[(1R)-1-(3-Bromo-4-methyl-phenyl)ethyl]-2-methyl-5-(4-methylpiperazin-1-yl)benzamide]
[1]
  % Cell Viability: 4.7%
SARS-CoV-2 PLpro
  IC50: < 2000 nM

## Cc1ccc(N2CCN(C)CC2)cc1C(=O)N[C@H](C)c1cc(F)cc(Br)c1 [Example 197, N-[(1R)-1-(3-Bromo-5-fluoro-phenyl)ethyl]-2-methyl-5-(4-methylpiperazin-1-yl)benzamide]
[1]
  % Cell Viability: 44.7%
SARS-CoV-2 PLpro
  IC50: < 2000 nM

## COc1cc(Br)cc([C@@H](C)NC(=O)c2cc(N3C[C@H]4C[C@@H]3CN4C)ccc2C)c1 [Example 198, N-[(1R)-1-(3-Bromo-5-methoxy-phenyl)ethyl]-2-methyl-5-[(1R,4R)-5-methyl-2,5-diazabicyclo[2.2.1]heptan-2-yl]benzamide]
[1]
  % Cell Viability: 1.6%
SARS-CoV-2 PLpro
  IC50: < 2000 nM

## COc1cc(Br)cc([C@@H](C)NC(=O)c2cc(N3CC4CN(C)CC4C3)ccc2C)c1 (stereo partly drawn) [Example 199, N-[(1R)-1-(3-Bromo-5-methoxy-phenyl)ethyl]-2-methyl-5-(2-methyl-1,3,3a,4,6,6a-hexahydropyrrolo[3,4-c]pyrrol-5-yl)benzamide]
[1]
  % Cell Viability: 0.7%
SARS-CoV-2 PLpro
  IC50: < 2000 nM

## COc1cc(Br)cc([C@@H](C)NC(=O)c2cc(N3CCN4CCCC4C3)ccc2C)c1 (stereo partly drawn) [Example 200, 5-(3,4,6,7,8,8a-Hexahydro-1H-pyrrolo[1,2a]pyrazin-2-yl)-N-[(1R)-1-(3-bromo-5-methoxy-phenyl)ethyl]-2-methyl-benzamide]
[1]
  % Cell Viability: 24.3%
SARS-CoV-2 PLpro
  IC50: < 2000 nM

## Cc1ccc(N2CCN(C)CC2)cc1C(=O)N[C@H](C)c1ccc(Cl)c(Br)c1 [Example 201, N-[(1R)-1-(3-Bromo-4-chloro-phenyl)ethyl]-2-methyl-5-(4-methylpiperazin-1-yl)benzamide]
[1]
  % Cell Viability: 1.0%
SARS-CoV-2 PLpro
  IC50: < 2000 nM

## COc1cc(OC)c([C@@H](C)NC(=O)c2cc(N3CCN(C)CC3)ccc2C)cc1Br [Example 202, N-[(1R)-1-(5-Bromo-2,4-dimethoxy-phenyl)ethyl]-2-methyl-5-(4-methylpiperazin-1-yl)benzamide]
[1]
  % Cell Viability: 72.5%
SARS-CoV-2 PLpro
  IC50: < 5000 nM

## COc1ccc([C@@H](C)NC(=O)c2cc(N3CCN(C)CC3)ccc2C)cc1-c1ccccc1 [Example 203, N-[(1R)-1-(4-Methoxy-3-phenyl-phenyl)ethyl]-2-methyl-5-(4-methylpiperazin-1-yl)benzamide]
[1]
  % Cell Viability: 0.9%
SARS-CoV-2 PLpro
  IC50: < 2000 nM

## COc1ccc([C@@H](C)NC(=O)c2cc(N3CCN(C)CC3)ccc2C)cc1-c1cccc(C(C)(C)O)c1 [Example 204, N-[(1R)-1-[3-[3-(1-Hydroxy-1-methyl-ethyl)phenyl]-4-methoxy-phenyl]ethyl]-2-methyl-5-(4-methylpiperazin-1-yl)benzamide]
[1]
  % Cell Viability: 81.4%
SARS-CoV-2 PLpro
  IC50: < 2000 nM

## COc1ccc([C@@H](C)NC(=O)c2cc(N3CCN(C)CC3)ccc2C)cc1-c1ccsc1 [Example 206, N-[(1R)-1-[4-Methoxy-3-(3-thienyl)phenyl]ethyl]-2-methyl-5-(4-methylpiperazin-1-yl)benzamide]
[1]
  % Cell Viability: 0.8%
SARS-CoV-2 PLpro
  IC50: < 2000 nM

## COc1ccc([C@@H](C)NC(=O)c2cc(N3CCN(C)CC3)ccc2C)cc1-c1ccn(C)n1 [Example 207, N-[(1R)-1-[4-Methoxy-3-(1-methylpyrazol-3-yl)phenyl]ethyl]-2-methyl-5-(4-methylpiperazin-1-yl)benzamide]
[1]
  % Cell Viability: 103.7%
SARS-CoV-2 PLpro
  IC50: < 2000 nM

## COc1ccc([C@@H](C)NC(=O)c2cc(N3CCN(C)CC3)ccc2C)cc1-c1cnn(C(F)F)c1 [Example 208, N-[(1R)-1-[3-[1-(Difluoromethyl)pyrazol-4-yl]-4-methoxy-phenyl]ethyl]-2-methyl-5-(4-methylpiperazin-1-yl)benzamide]
[1]
  % Cell Viability: 87.8%
SARS-CoV-2 PLpro
  IC50: < 2000 nM

## COc1ccc([C@@H](C)NC(=O)c2cc(N3CCN(C)CC3)ccc2C)cc1-c1ccc(=O)n(C)c1 [Example 210, N-[(1R)-1-[4-Methoxy-3-(1-methyl-6-oxo-3-pyridyl)phenyl]ethyl]-2-methyl-5-(4-methylpiperazin-1-yl)benzamide]
[1]
  % Cell Viability: 64.0%
SARS-CoV-2 PLpro
  IC50: < 5000 nM

## COc1ccc([C@@H](C)NC(=O)c2cc(N3CCN(C)CC3)ccc2C)cc1-c1ccncc1 [Example 211, N-[(1R)-1-[4-Methoxy-3-(4-pyridyl)phenyl]ethyl]-2-methyl-5-(4-methylpiperazin-1-yl)benzamide]
[1]
  % Cell Viability: 86.0%
SARS-CoV-2 PLpro
  IC50: < 2000 nM

## CCn1cc(-c2cc([C@@H](C)NC(=O)c3cc(N4CCN(C)CC4)ccc3C)ccc2OC)cn1 [Example 213, N-[(1R)-1-[3-(1-Ethylpyrazol-4-yl)-4-methoxy-phenyl]ethyl]-2-methyl-5-(4-methylpiperazin-1-yl)benzamide]
[1]
  % Cell Viability: 67.2%
SARS-CoV-2 PLpro
  IC50: < 2000 nM

## COc1ccc([C@@H](C)NC(=O)c2cc(N3CCN(C)CC3)ccc2C)cc1-c1cn[nH]c1 [Example 214, N-[(1R)-1-[4-Methoxy-3-(1H-pyrazol-4-yl)phenyl]ethyl]-2-methyl-5-(4-methylpiperazin-1-yl)benzamide]
[1]
  % Cell Viability: 101.2%
SARS-CoV-2 PLpro
  IC50: < 2000 nM

## COc1cc(OC)c([C@@H](C)NC(=O)c2cc(N3CCN(C)CC3)ccc2C)cc1-c1ccccc1 [Example 216, N-[(1R)-1-(2,4-Dimethoxy-5-phenyl-phenyl)ethyl]-2-methyl-5-(4-methylpiperazin-1-yl)benzamide]
[1]
  % Cell Viability: 0.6%
SARS-CoV-2 PLpro
  IC50: < 2000 nM

## Cc1ccc(N2CCN(C)CC2)cc1C(=O)N[C@H](C)c1ccc(F)c(-c2ccccc2)c1 [Example 218, N-[(1R)-1-(4-Fluoro-3-phenyl-phenyl)ethyl]-2-methyl-5-(4-methylpiperazin-1-yl)benzamide]
[1]
  % Cell Viability: 1.5%
SARS-CoV-2 PLpro
  IC50: < 2000 nM

## Cc1ccc(N2CCN(C)CC2)cc1C(=O)N[C@H](C)c1ccc(OC(F)(F)F)c(-c2cnn(C)c2)c1 [Example 222, 2-Methyl-5-(4-methylpiperazin-1-yl)-N-[(1R)-1-[3-(1-methylpyrazol-4-yl)-4-(trifluoromethoxy)phenyl]ethyl]benzamide]
[1]
  % Cell Viability: 7.4%
SARS-CoV-2 PLpro
  IC50: < 2000 nM

## Cc1ccc(N2CCN(C)CC2)cc1C(=O)N[C@H](C)c1cncc(-c2ccccc2)c1 [Example 223, 2-Methyl-5-(4-methylpiperazin-1-yl)-N-[(1R)-1-(5-phenyl-3-pyridyl)ethyl]benzamide]
[1]
  % Cell Viability: 59.8%
SARS-CoV-2 PLpro
  IC50: < 2000 nM
